Reference: patent publication US20240390400A1, “ENPP1 INHIBITORS AS INHIBITORS OF METASTASIS” (Angarus Therapeutics, Inc., priority 2021, published 2024)
Where “and” joins values, the source holds several entries; their conditions need not be identical. Equal values may be shown once.

Columns and labels:
[1] = system: EMT6 tumor cells; test: EMT-6 tumor model (tumor volume and lung metastasis); assay type: in vivo, female Balb/c mice
Experimental: Test animals were female Balb/c mice aged 5-8 weeks at inoculation.
The EMT6 tumor cells were maintained in vitro with DMEM medium supplemented with 10% fetal bovine serum at 37° C. in an atmosphere of 5% CO2 in air. The cells in exponential growth phase were harvested and quantitated by cell counter before tumor inoculation.
Each mouse was inoculated subcutaneously in the right flank region with EMT6 tumor cells (5×10^5) in 0.1 ml of PBS for tumor development.
Staggered inoculation was performed. G1, 2, 3, 6, 7 were inoculated one day before G4, 5, 8, 9, 10.
The randomization started when the mean tumor size reached approximately 80 (60-110) mm^3. 100 mice were enrolled in the study. All animals were randomly allocated to 10 study groups. Randomization was performed based on “Matched distribution” method (StudyDirector™ software, version 3.1.399.19).
Staggered randomization was performed. G1, 2, 3, 6, 7 were randomized one day before G4, 5, 8, 9, 10.
The date of tumor randomization was denoted as day 0.
After tumor cells inoculation, the animals were checked daily for morbidity and mortality. During routine monitoring, the animals were checked for any effects of tumor growth and treatments on behavior such as mobility, food and water consumption, body weight gain/loss (body weights were measured twice per week after randomization), eye/hair matting and any other abnormalities. Mortality and observed clinical signs were recorded for individual animals in detail.
Tumor volumes were measured twice per week in two dimensions using a caliper, and the volume was expressed in mm^3 using the formula: “V=(L×W×W)/2, where V is tumor volume, L is tumor length (the longest tumor dimension) and W is tumor width (the longest tumor dimension perpendicular to L). (Tumor weight was measured at the end of study). Dosing as well as tumor and body weight measurements were conducted in a Laminar Flow Cabinet.
The study was terminated at 4 weeks post randomization. Individual animals were euthanized when TV>3000 mm^3.
For comparison between two groups, a Student's t-test was performed. For comparison among three or more groups, an one-way ANOVA was performed followed by multiple comparison procedures. All data were analyzed using SPSS 18.0 and/or GraphPad Prism 5.0. P<0.05 is considered statistically significant.
Animals were treated with vehicle, cpd 76, radiotherapy, or anti-PD-L1, or a combination of treatments. Compound 76 was dosed 50 mg/kg and formulated 5 mg/ml in PBS. Radiotherapy used the X-RAD 225Cx SmART Small Animal Radiation Therapy System (Crownbio). Ten animals were in each group and dosing was performed as in Table 4.

[2] = Animal weight in 4T1 tumor model study; assay type: in vivo, Mus musculus, BALB/c; settings: throughout the study; Groups 3 and 4 until Day 21, Groups 1 and 2 until Day 25
Experimental: All treatment groups were compared to the vehicle control given subcutaneously once a day on Days 7, 8, 9, 14, 15 and 16 (Group 1).
At necropsies, animals were weighed, and a final in vivo tumor volume measurement was performed.

Row | mean animal weights [2] | Compound | effect on tumor growth ([1]; Compound 76 50 mg/kg QD 1-7 combined with IR and aPD-L1 (triple combo)) | lung metastasis (animals with metastasis / animals) ([1]; Compound 76 QD 1-7 d combined with aPD-L1 (Groups 9 and 10), study termination day 29) | effect on tumor volume / tumor growth ([1]; single agent, Compound 76 50 mg/kg QD 1-7 only or 3 d on/4 d off for 4 weeks, aPD-L1 2.5 mg/kg) | lung metastasis (animals with metastasis / animals in group) ([1]; single agent, study termination day 29)
1 |  | COc1cccc2c(N3CCC(CCP(=O)(O)O)CC3)ncnc12 [Compound 76] | synergistic effect | 0/20 | no effect on tumor volume | 7/10 and 8/10
2 | continuously decreased | COc1cccc2c1C(=O)c1c(O)c3c(c(O)c1C2=O)C[C@@](O)(C(=O)CO)C[C@@H]3O[C@H]1C[C@H](N)[C@H](O)[C@H](C)O1 [doxorubicin, Doxorubicin] |  |  |  | 
